US20230174538A1, “Tricyclic heterocycles” (Merck Patent GmbH, priority 2020, published 2023)

Test system: YAP-TEAD interaction
Experiment: SK-HEP-1 reporter assay (8xTEAD responsive elements driving NanoLuc luciferase)
Format: cell-based
Conditions: Homo sapiens, SK-HEP1, SK-HEP-1 reporter assay
Experimental: To identify inhibitors of YAP-TEAD interaction, 8×TEAD responsive elements driving the NanoLuc® luciferase gene were stably integrated into SK-HEP-1 cells (ECACC #: 91091816).
For the assay, cells were treated in duplicates with the test compounds in a 10-point dose, with the top concentration starting at 30 μM (final concentration in assay). After a 24 hour incubation at 37° C., 95% rH, and 5% CO2, a luciferase substrate/lysis reagent mix (NanoGlo™, Promega) was added to the cells, allowing the quantification of cellular luciferase activity.
Cell Media: The cells were cultured in the following media: MEM, +10% FBS, +1× GlutaMAX, +1 mM Sodium-Pyruvate, +100 μM Non-essential amino acids, +0.1 mg/ml Hygromycin. The media used for the assay was: MEM (w/o Phenol Red), +10% FBS, +1× GlutaMAX, +1 mM Sodium-Pyruvate, +100 μM Non-essential amino acids, +0.5% Pen/Strep
Reagents: The reagents used are listed below:
Cell culture: The cells were examined using an inverted microscope to check for health and cell density. To dissociate adherent cells, the monolayer of cells was washed once with pre-warmed PBS. After removing the PBS, 3 ml pre-warmed Accutase® was added to a F75 flask, dispersed evenly and the flask was allowed to sit in incubator for ˜4-5 minutes.
When a single cell suspension was obtained, 7 ml of prewarmed growth media was added and resuspended with the cells. The cell suspension was transferred to a sterile 15 ml conical centrifuge tube, and spun for 5 min at 300×g, RT. The supernatant was discarded and the pellet was resuspended in 10 ml of pre-warmed growth media.
The total cell count was determined, and 20 μl of the desired cell number was added to each well of a 384 well plate using a Multidrop Combi. The plates were then incubated for 24 hours at 37° C., 95% rH, and 5% CO2.
Compound treatment: 24 hours after seeding, the cells were treated with compounds.
A 1:333 dilution of compounds, diluted in DMSO, was made to get a final concentration of 0.3% DMSO per well. To transfer the compounds to the assay plate, 120 nl was shot from Labcyte low dead volume plates to the cell plates containing 20 μl media/well with the ECHO 555 liquid handling system.
After treatment, the cells were fed with 20 μl fresh pre-warmed assay media using a Multidrop combi.
The assay plates were then incubated for another 24 h at 37° C., 95% rH, and 5% CO2.
Luciferase readout: 24 h after treatment, the plates were taken out of the incubator and were allowed to equilibrate to RT. 30 μl of NanoGlo® reagent was added to the plates in the dark. Plates were shaken for 20 min on a Teleshake (˜1500 rpm) in the dark. The luminescence was then measured using an EnVision microplate reader. The IC50 values were generated using Genedata Screener®.

IC50 | SMILES
> 10000 nM | CN(Cc1noc(C2CC2)n1)C(=O)c1ccc2c(c1)c1cn(C)nc1n2-c1ccc(C(F)(F)F)cc1 [B137^]
100 to 10000 nM | CCCn1ncnc1CNC(=O)c1ccc2c(c1)c1cn(C)nc1n2-c1ccc(C(F)(F)F)cc1 [B138^]
> 10000 nM | Cn1cc2c3cc(C(=O)NC[C@H]4C[C@H](n5cncn5)C4)ccc3n(-c3ccc(C(F)(F)F)cc3)c2n1 [B140^]
100 to 10000 nM | Cn1cc2c3cc(C(=O)NCCCc4cc[nH]n4)ccc3n(-c3ccc(C(F)(F)F)cc3)c2n1 [B142^]
> 10000 nM | Cn1cc2c3cc(C(=O)NC4CCCN(CCF)C4)ccc3n(-c3ccc(C(F)(F)F)cc3)c2n1 (centres unmarked) [B143^]
10 to 100 nM | Cc1nc(CNC(=O)c2ccc3c(c2)c2cn(C)nc2n3-c2ccc(C(F)(F)F)cc2)n[nH]1 [B144^]
> 10000 nM | Cc1c[nH]c(C(NC(=O)c2ccc3c(c2)c2cn(C)nc2n3-c2ccc(C(F)(F)F)cc2)C2CC2)n1 (centres unmarked) [B145^]
100 to 10000 nM | O=C(O)c1ccc2c(c1)c1cn(Cc3ccccc3)cc1n2S(=O)(=O)c1ccccc1 [Example 1, 4-(benzenesulfonyl)-2-benzyl-2H,4H-pyrrolo[3,4-b]indole-7-carboxylic acid]
1 to 10 nM | O=C(O)c1ccc2c(c1)c1cn(Cc3ccccc3)cc1n2-c1ccccc1 [Example 3, 2-Benzyl-4-phenyl-2H,4H-pyrrolo[3,4-b]indole-7-carboxylic acid]
100 to 10000 nM | Cn1cc2c(n1)c1cc(C(=O)O)ccc1n2-c1ccc(C(F)(F)F)cc1 [Example 4, 2-methyl-4-[4-(trifluoromethyl)phenyl]-2H,4H-pyrazolo[4,3-b]indole-7-carboxylic acid]
10 to 100 nM | Cn1cc2c3cc(C(=O)O)ccc3n(-c3cccc(F)c3)c2n1 [Example 7, 8-(3-fluorophenyl)-2-methyl-2H,8H-pyrazolo[3,4-b]indole-5-carboxylic acid]
100 to 10000 nM | Cn1cc2c3cc(C(=O)O)ccc3n(Cc3cccc(C(F)(F)F)c3)c2n1 [Example 8, 2-Methyl-8-{[3-(trifluoromethyl)phenyl]methyl}-2H,8H-pyrazolo[3,4-b]indole-5-carboxylic acid]
100 to 10000 nM | Cn1cc2c3cc(C(=O)O)ccc3n(CC3CCCCC3)c2n1 [Example 11, 8-(cyclohexylmethyl)-2-methyl-2H,8H-pyrazolo[3,4-b]indole-5-carboxylic acid]
100 to 10000 nM | Cn1cc2c3cc(C(=O)O)ccc3n(-c3ccc(Cl)cc3)c2n1 [Example 13, 8-(4-chlorophenyl)-2-methyl-2H,8H-pyrazolo[3,4-b]indole-5-carboxylic acid]
100 to 10000 nM | Cn1cc2c(n1)c1cc(S(C)(=O)=O)ccc1n2-c1ccc(C(F)(F)F)cc1 [Example 33, 7-methanesulfonyl-2-methyl-4-[4-(trifluoromethyl)phenyl]-2H,4H-pyrazolo[4,3-b]indole]
10 to 100 nM | CCC(NC(=O)c1ccc2c(c1)c1cn(C)nc1n2-c1ccc(C(F)(F)F)cc1)c1c[nH]nn1 (centres unmarked) [Example B3, 2-methyl-N-[1-(1H-1,2,3-triazol-4-yl)propyl]-8-[4-(trifluoromethyl)phenyl]-2H,8H-pyrazolo[3,4-b]indole-5-carboxamide]

IC50 | SMILES
100 to 10000 nM | CC(NC(=O)c1ccc2c(c1)c1cn(C)nc1n2-c1ccc(C(F)(F)F)cc1)c1c[nH]cn1 (centres unmarked) [Example B5, N-[1-(1H-imidazol-4-yl)ethyl]-2-methyl-8-[4-(trifluoromethyl)phenyl]-2H,8H-pyrazolo[3,4-b]indole-5-carboxamide]
100 to 10000 nM | Cn1cc2c3cc(C(=O)NCc4cc5ncccc5[nH]4)ccc3n(-c3ccc(C(F)(F)F)cc3)c2n1 [Example B6, 2-methyl-N-({1H-pyrrolo[3,2-b]pyridin-2-yl}methyl)-8-[4-(trifluoromethyl)phenyl]-2H,8H-pyrazolo[3,4-b]indole-5-carboxamide]
> 10000 nM | CCC(NC(=O)c1ccc2c(c1)c1cn(C)nc1n2-c1ccc(C(F)(F)F)cc1)c1ncc[nH]1 (centres unmarked) [Example B7, N-[1-(1H-imidazol-2-yl)propyl]-2-methyl-8-[4-(trifluoromethyl)phenyl]-2H,8H-pyrazolo[3,4-b]indole-5-carboxamide]
100 to 10000 nM | CC(NC(=O)c1ccc2c(c1)c1cn(C)nc1n2-c1ccc(C(F)(F)F)cc1)c1ccc[nH]1 (centres unmarked) [Example B8, 2-methyl-N-[1-(1H-pyrrol-2-yl)ethyl]-8-[4-(trifluoromethyl)phenyl]-2H,8H-pyrazolo[3,4-b]indole-5-carboxamide]
10 to 100 nM | Cn1cc2c3cc(C(=O)NC(CCO)c4cncs4)ccc3n(-c3ccc(C(F)(F)F)cc3)c2n1 (centres unmarked) [Example B9, N-[3-hydroxy-1-(1,3-thiazol-5-yl)propyl]-2-methyl-8-[4-(trifluoromethyl)phenyl]-2H,8H-pyrazolo[3,4-b]indole-5-carboxamide]
100 to 10000 nM | Cn1cc2c3cc(C(=O)N4CC5(CCCC5)CC4CO)ccc3n(-c3ccc(C(F)(F)F)cc3)c2n1 (centres unmarked) [Example B10, (2-{2-methyl-8-[4-(trifluoromethyl)phenyl]-2H,8H-pyrazolo[3,4-b]indole-5-carbonyl}-2-azaspiro[4.4]nonan-3-yl)methanol]
10 to 100 nM | Cn1cc2c3cc(C(=O)NCCc4c[nH]nn4)ccc3n(-c3ccc(C(F)(F)F)cc3)c2n1 [Example B11, 2-methyl-N-[2-(1H-1,2,3-triazol-4-yl)ethyl]-8-[4-(trifluoromethyl)phenyl]-2H,8H-pyrazolo[3,4-b]indole-5-carboxamide]
100 to 10000 nM | Cn1cc2c3cc(C(=O)N(CCO)CC4CC=CCC4)ccc3n(-c3ccc(C(F)(F)F)cc3)c2n1 (centres unmarked) [Example B12, N-[(cyclohex-3-en-1-yl)methyl]-N-(2-hydroxyethyl)-2-methyl-8-[4-(trifluoromethyl)phenyl]-2H,8H-pyrazolo[3,4-b]indole-5-carboxamide]
100 to 10000 nM | Cn1cc2c3cc(C(=O)N4CCCC4c4ccc[nH]4)ccc3n(-c3ccc(C(F)(F)F)cc3)c2n1 (centres unmarked) [Example B13, 2-(1-{2-methyl-8-[4-(trifluoromethyl)-phenyl]-2H,8H-pyrazolo[3,4-b]indole-5-carbonyl}pyrrolidin-2-yl)-1H-pyrrole]
100 to 10000 nM | CC(NC(=O)c1ccc2c(c1)c1cn(C)nc1n2-c1ccc(C(F)(F)F)cc1)c1nn(C)cc1O (centres unmarked) [Example B14, N-[1-(4-hydroxy-1-methyl-1H-pyrazol-3-yl)ethyl]-2-methyl-8-[4-(trifluoromethyl)phenyl]-2H,8H-pyrazolo[3,4-b]indole-5-carboxamide]
100 to 10000 nM | Cn1cc2c3cc(C(=O)NC4CC(O)C45CCOCC5)ccc3n(-c3ccc(C(F)(F)F)cc3)c2n1 (centres unmarked) [Example B16, N-{3-hydroxy-7-oxaspiro[3.5]nonan-1-yl}-2-methyl-8-[4-(trifluoromethyl)phenyl]-2H,8H-pyrazolo[3,4-b]indole-5-carboxamide]
100 to 10000 nM | Cn1cc2c3cc(C(=O)NCc4cc(C5CCC5)n[nH]4)ccc3n(-c3ccc(C(F)(F)F)cc3)c2n1 [Example B17, N-[(3-cyclobutyl-1H-pyrazol-5-yl)methyl]-2-methyl-8-[4-(trifluoro-methyl)phenyl]-2H,8H-pyrazolo[3,4-b]indole-5-carboxamide]
1 to 10 nM | Cn1cc2c3cc(C(=O)NCc4ccc(F)c(CO)c4)ccc3n(-c3ccc(C(F)(F)F)cc3)c2n1 [Example B19, N-{[4-fluoro-3-(hydroxymethyl)-phenyl]methyl}-2-methyl-8-[4-(trifluoromethyl)phenyl]-2H,8H-pyrazolo[3,4-b]indole-5-carboxamide]
> 10000 nM | Cn1cc2c3cc(C(=O)NCc4ncn5c4CCCC5)ccc3n(-c3ccc(C(F)(F)F)cc3)c2n1 [Example B20, N-({5H,6H,7H,8H-imidazo[1,5-a]pyridin-1-yl}methyl)-2-methyl-8-[4-(trifluoromethyl)phenyl]-2H,8H-pyrazolo[3,4-b]indole-5-carboxamide]
10 to 100 nM | Cc1n[nH]c(C)c1C(C)NC(=O)c1ccc2c(c1)c1cn(C)nc1n2-c1ccc(C(F)(F)F)cc1 (centres unmarked) [Example B21, N-[1-(3,5-dimethyl-1H-pyrazol-4-yl)ethyl]-2-methyl-8-[4-(trifluoromethyl)phenyl]-2H,8H-pyrazolo[3,4-b]indole-5-carboxamide]

SMILES | IC50
Cn1cc2c3cc(NC(=O)CCl)ccc3n(-c3ccc(C(F)(F)F)cc3)c2n1 [Example 23, 2-chloro-N-[2-methyl-8-[4-(trifluoromethyl)phenyl]pyrazolo[3,4-b]indol-5-yl]acetamide] | > 10000 nM
